Assay results published in patent US10195466B2, “Method for treating skin cancer using radiation therapy” (HACKENSACK UNIVERSITY MEDICAL CENTER, priority 2014, dated 2019).

Key:
[1] = system: melanoma cell lines WC00046, WC00060 and WC00081; assay: Cell survival (cell count) after irradiation with or without mitochondrial inhibitors; type: cell-based, human; conditions: compared to untreated cells, FIG. 1B; for cell killing of melanoma cells: inhibitor combined with high dose rate 2,400 mu/min, 5 μM in medium; for survival rates: melanoma cells, doses 2 Gy, 4 Gy and 8 Gy at 2,400 mu/min and 400 mu/min
Experimental: Three melanoma cell lines; WC00046, WC00060 and WC00081 were used in these examples, in which WC00046 was the most aggressive cell line (metastatic stage II), WC00060 was least aggressive (stage I, primary tumor site) and WC00081 was the medium aggressive (malignant melanoma primary site), purchased from Coriell Institute of Camden, N.J. The primary HEM (human epidermal melanocytes) was purchased from ScienCell Research Laboratories of Carlsbad, Calif. (#2220). Melanoma cells were grown in RPMI (Invitrogen) with 10% FBS, 1% Penicillin/Streptomycin. HEM cells were grown in Mel-M media (ScienCell Research Laboratories, Catalog number 2201) supplemented with 5 ML, Mel GS (ScienCell Research Laboratories, Catalog number 2252), 2.5 ML FBS (ScienCell Research Laboratories, Catalog number 0002) and 5 ML penicillin/Streptomycin solution (ScienCell Research Laboratories, Catalog number 0503), which is a complete medium designed for optimal growth of normal human dermal-derived melanocytes in vitro.
Two mitochondrial inhibitors Oligomycin (Sigma Aldrich # O4876) and Rotenone (Sigma Aldrich #R8875) were used. An optimal concentration of 0.5 uM were used for both melanoma cell lines and HEM added to the growth medium and removed after the irradiation. Dilutions were made in DMSO according to manufacturer's instructions.
Melanoma cell lines WC00046, WC00060 and WC00081 (purchased from Coriell Institute of Camden, N.J.) were seeded at 5×10^5 cells in T-25 culture flasks (BD-Falcon, Franklin Lakes, N.J., Catalog #356536 or equivalent) containing either RPMI media (Invitrogen, Carlsbad, Calif., Catalog #11875119 or equivalent) with 10% fetal bovine serum (FBS; ATCC Catalog #30-2020 or equivalent), 1% Penicillin/Streptomycin (GIBCO, Carlasbad, Calif., Catalog #15140 or equivalent) or RPMI media with 10% FBS, 1% Penicillin/Streptomycin, 5 μM Oligomycin (Sigma-Aldrich, St. Louis, Mo., Catalog #04876) or RPMI media with 10% FBS, 1% Penicillin/Streptomycin, 5 μM Rotenone (Sigma-Aldrich, St. Louis, Mo., Catalog #R8875). Human Epidermal Melanocytes (HEM) (ScienCell Research Laboratories, Carlsbad, Calif., Catalog #2220) were seeded at 5×10^5 cells in a T-25 culture flask (BD-Falcon, Franklin Lakes, N.J., Catalog #356536 or equivalent) containing either Mel-M media (ScienCell Research Laboratories, Carlsbad, Calif., Catalog #2201) or Mel-M media, 5 μM Oligomycin or Mel-M media, 5 μM Rotenone. Cells were allowed to settle and adhere to the T-25 culture flasks by overnight incubation in a humidified incubator at 37° C., 5% CO2. […] Cells were counted and cell survival (%) was recorded two (2) days and seven (7) days post radiation.

HEM = assay: Colony formation (clonogenic) assay after irradiation; type: cell-based, human; conditions: HEM treated with mitochondrial inhibitors and irradiated; FIG. 4B
Experimental: (§1) Radiated cells were washed with 1× phosphate buffer saline (PBS), trypsinized and harvested in corning tubes (15 ml, BD Falcon). These cells were serially diluted (1:100, 1:1000, 1:10000) and plated in Petri-dishes (Tissue culture Petri dishes, BD Falcon) with complete media and allowed to grow colonies for 7-21 days. Colonies were stained with Hematoxylin for 30 min after fixing the cells in 100% ethanol for about 20-30 min. Petridishes with stained colonies were washed in water, dried overnight and counts were recorded.
(§2) The colony formation assay, or clonogenic assay, is used to determine the ability of a cell to proliferate (i.e., maintain its reproductive ability to form a colony or clone). This assay has been widely used in radiation biology to assess the effects of ionizing radiation on cells (Sadagopan, R. et al., “Characterization and clinical evaluation of a novel IMRT quality assurance system.” Journal of Applied Clinical Medical Physics 10.2 (2009)). In this study, three (3) melanoma cell lines were used to compare the effects of different radiation dose rates on cell proliferation. Melanoma cell lines were selected based on their known resistance to radiation therapy. Human epidermal melanocytes (HEM) were used to determine the effect of ionizing radiation on normal cells.
(§3) Cells were maintained and irradiated as described in Example 1. Irradiated cells were washed with 1× phosphate buffer saline (PBS) (Sigma Aldrich, St. Louis, Mo., Catalog No. P5493, or equivalent), trypsinized and harvested in 15 mL conical tubes (BD-Falcon, Franklin Lakes, N.J., Catalog #352095 or equivalent). The cells were serially diluted (1:100, 1:1000, 1:10000) and plated in Petri-dishes (BD-Falcon, Franklin Lakes, N.J., Catalog #351007 or equivalent) with the appropriate complete media and allowed to grow colonies for 7-21 days. Colonies were stained with hematoxylin (Sigma-Aldrich, St. Louis, Mo., Catalog #H9627 or equivalent) for 30 minutes after fixing the cells in 100% ethanol (VWR, Radnor, Pa., Catalog #71006-012 or equivalent) for about 20-30 minutes. Petridishes with stained colonies were washed in water, dried overnight and colony counts were recorded.

[2] = system: melanoma cells WC00046, WC00060 and WC00081; assay: as above; type: cell-based, human; conditions: FIG. 4B
Experimental: as §1, §2, §3

melanoma cells [3] = assay: Mitotracker Red assay of mitochondrial activity in irradiated cells; type: cell-based, human; conditions: irradiated cells with mitochondrial respiration blocked, versus non-irradiated control (Dose 0); FIG. 2A
Experimental: Mitotracker Red CMXRos (Invitrogen-M7512) was used for mitotracker assay. Stock solution was prepared in anhydrous DMSO, and the aliquots were stored in −30° C. Stock solution was diluted with culture media prior to the assay. Cells were treated with Mitotracker working solution (200 nM) and incubated for 15 minutes (37° C., 5% CO2). Labeling solution was removed and cells were washed with 1×PBS followed by fixing with 2% PFA (paraformaldehyde) for 30 minutes at room temperature in dark. Cells were washed with 1×PBS and mounted using DAPI and images were taken immediately.
It is well-known that melanoma cells up-regulate mitochondrial respiration to partly overcome the damage caused by radiation treatment (Rafehi, H et al., “Clonogenic assay: adherent cells.” J. Vis. Exp. 2011 Mar. 13;(49). pii: 2573. doi: 10.3791/2573). In this study, Mitotracker® Red was used to determine mitochondrial activity in irradiated melanoma cells and HEM. Mitotracker® Red is a cell permeant mitochondrial probe that diffuses through the plasma membrane of active mitochondria and is retained there even after fixation of cells. That is, mitochondrial activity is a direct measure of the amount of fluorescent Mitotracker® Red accumulated within the mitochondria.
A Mitotracker® Red CMXRos (Invitrogen, Carlsbad, Calif., Catalog #M7512 or equivalent) assay was performed according to manufacturer's instructions. […]

melanoma cells [4] = assay: MTT cell proliferation assay in irradiated cells; type: cell-based, human; conditions: seven days post-irradiation, relative to irradiation alone, FIG. 2B
Experimental: MTT assay was carried out to measure the cell proliferation in radiated cells. Cells were seeded in […] and incubated with MTT assay reagent (tetrazolium dye). MTT assay is based on the ability of metabolically active cells to reduce the yellow tetrazolium salt (MTT) by to form insoluble purple formazan crystals, which are solubilized by the addition of a detergent and quantified (i.e., color). The MTT Cell Proliferation Assay measures the cell proliferation rate and conversely, when metabolic events lead to apoptosis or necrosis, the reduction in cell viability. The number of assay steps has been minimized as much as possible to expedite sample processing. The MTT Reagent yields low background absorbance values in the absence of cells. For each cell type the linear relationship between cell number and signal produced is established, thus allowing an accurate quantification of changes in the rate of cell proliferation.
An MTT (tetrazolium dye) assay was performed to measure cell proliferation in irradiated melanoma cells and HEM. The MTT assay is based on the ability of metabolically active cells to reduce yellow tetrazolium salt (MTT) to insoluble purple formazan crystals. The formazan crystals are solubized in detergent and quantified by colorimetric analysis. […]

[5] = system: Human Epidermal Melanocytes (HEM); assay: Cell survival (cell count) after irradiation with or without mitochondrial inhibitors; type: cell-based; conditions: doses 2 Gy, 4 Gy and 8 Gy at 2,400 mu/min and 400 mu/min, compared to untreated cells, FIG. 1B
Experimental: Three melanoma cell lines; WC00046, WC00060 and WC00081 were used in these examples, in which WC00046 was the most aggressive cell line (metastatic stage II), WC00060 was least aggressive (stage I, primary tumor site) and WC00081 was the medium aggressive (malignant melanoma primary site), purchased from Coriell Institute of Camden, N.J. The primary HEM (human epidermal melanocytes) was purchased from ScienCell Research Laboratories of Carlsbad, Calif. (#2220). Melanoma cells were grown in RPMI (Invitrogen) with 10% FBS, 1% Penicillin/Streptomycin. […]
Melanoma cell lines WC00046, WC00060 and WC00081 (purchased from Coriell Institute of Camden, N.J.) were seeded at 5×10^5 cells in T-25 culture flasks (BD-Falcon, Franklin Lakes, N.J., Catalog #356536 or equivalent) containing either RPMI media (Invitrogen, Carlsbad, Calif., Catalog #11875119 or equivalent) with 10% fetal bovine serum (FBS; ATCC Catalog #30-2020 or equivalent), 1% Penicillin/Streptomycin (GIBCO, Carlasbad, Calif., Catalog #15140 or equivalent) or RPMI media with 10% FBS, 1% Penicillin/Streptomycin, 5 μM Oligomycin (Sigma-Aldrich, St. Louis, Mo., Catalog #04876) or RPMI media with 10% FBS, 1% Penicillin/Streptomycin, 5 μM Rotenone (Sigma-Aldrich, St. Louis, Mo., Catalog #R8875). […] Cells were counted and cell survival (%) was recorded two (2) days and seven (7) days post radiation.

[6] = WC00046, 2,400 mu/min, treated with mitochondrial inhibitors
[7] = WC00046, WC00060 and WC00081, 2,400 mu/min, relative to irradiation alone

Row | Structure (SMILES) | cell killing of melanoma cells [1] | survival rates [1] | viability and proliferation (HEM) | cell survival (%) [2, 6] | cell survival (%) [2, 7] | mitochondrial activity (Mitotracker Red fluorescence) (melanoma cells [3]) | cell survival (%) (melanoma cells [4]) | survival rates [5]
1 | C=C(C)[C@H]1Cc2c(ccc3c2O[C@@H]2COc4cc(OC)c(OC)cc4[C@@H]2C3=O)O1 [Rotenone] | augment the cell killing | significantly lower survival rates | retained viability and proliferation | 25% | further reduced | reduced below basal levels | further reduced | significantly lower survival rates
2 | CC[C@H]1/C=C/C=C/C[C@@H](C)[C@H](O)[C@@](C)(O)C(=O)[C@@H](C)[C@H](O)[C@@H](C)C(=O)[C@@H](C)[C@H](O)[C@@H](C)/C=C/C(=O)O[C@@H]2[C@H](C)[C@H](CC1)O[C@]1(CC[C@H](C)[C@H](C[C@@H](C)O)O1)[C@H]2C [Oligomycin] | augment the cell killing | significantly lower survival rates | retained viability and proliferation | 25% | further reduced | reduced below basal levels | further reduced | significantly lower survival rates
